According to patent US20260083698A1, “Synergistic Stimulation of Mucociliary Clearance to Treat Mucus Obstruction in Cystic Fibrosis and Other Muco-Obstructive Disorders” (The Board of Trustees of the Leland Stanford Junior …, priority 2022, published 2026):

Assays:
pig tracheal mucosa = assay: Short circuit current (Isc) and conductance, Ussing chamber, pig; conditions: pig tracheal mucosa; sequential 10 μM forskolin, 0.3 μM carbachol, 10 μM benzamil, 20 μM BPO-27, 200 μM niflumic acid
From the text: FIG. 4. Combined agonists inhibit sodium absorption and stimulate anion secretion by surface epithelia. (A) Cartoon of two electrogenic, ion transport pathways across airway apical epithelium: anion secretion increases surface fluid, Na+ absorption decreases surface fluid. The two pathways have opposite effects on fluid depth, but additive effects on short circuit current (Isc) because of their opposite valence and transport directions. (B) Raw trace of Isc across pig tracheal epithelium using Chart 4 software. After reaching a stable, unstimulated Isc (here, >2 h post-mounting), 10 μM forskolin, 0.3 μM carbachol, 10 μM benzamil, 20 μM benzopyrimido-pyrrolo-oxazinedione (BPO-27) and 200 μM niflumic acid were sequentially added at times shown. (C, D) Pig tracheal mucosa: averaged Δ Isc plots over time in response to (C) forskolin alone followed by forskolin+carbachol and (D) reversed order of agonist addition. (E & F) Ferret tracheal mucosa: averaged A Isc plots with same protocol as for pigs. Pig traces (C, D) are based on 10-12 experiments with tissues from 6 to 7 pigs. Ferret traces (E, F) are from 7 experiments with tissues from 5 ferrets.
Combined agonists stimulate epithelial surface anion secretion and inhibit Na^+ absorption. The surface epithelia also modify ASL. FIG. 4A is a cartoon of the main ion flows controlling ASL depth: anion-mediated fluid secretion increases, and Na^+-mediated fluid absorption decreases ASL depth. It was hypothesized that the combined agonists increase ASL depth and thus MCCV by stimulating secretion and inhibiting absorption (see also FIG. 6). […] With no counterbalancing absorption ASL depth is predicted to increase (dotted gold line in FIG. 6A) unless MCCV increases.
Inhibiting Na+ absorption would increase net fluid accumulation on the surface. […]
Electrophysiology. […] Total tissue conductance was calculated by applying Ohm's law to the Isc deflection resulting from a 1 mV pulse across the tissues every 20 s during the experiment. […]

WT piglet tracheas = assay: Mucociliary clearance velocity (MCCV) in ex vivo WT piglet tracheas; parameters: species or system pig
Experimental: MCCV in tracheas was measured from 2 to 5 days old WT piglets (see “Methods” section for details). […] The 8 piglet tracheas were divided into two groups and tested 4 by applying forskolin first and 4 by applying carbachol first, followed by the combined agonists.
These experiments used forskolin to elevate cAMP.
Pig tissues. Newborn WT piglet tracheas (2-5 days old) were directly obtained at the swine facility of UC Davis or from the laboratory of David Stoltz, University of Iowa, via overnight priority express. Postmortem (<1 h) tracheas from young adult Yorkshire pigs (30-50 kg) and 5-12 months old M. putorius ferrets were from animal facilities at Stanford and Gilroy/CA. All methods using animal tracheae were carried out in accordance with relevant guidelines and regulations of Stanford University and animal protocols were approved (Stanford IACUC protocol#: 10,048). Piglet tracheas were shipped in DMEM cell culture medium, other animal tissues were transported to the laboratory in cold PhysioSol™ solution (Hospira, IL/USA) and then transferred to icecold Krebs Ringer bicarbonate (KRB) buffer gassed with 95% O2 and 5% CO2 and kept at 4° C. until use. The KRB buffer contained (in mM): 115 NaCl, 25 NaHCO3, 2.4 K2HPO4, 0.4 KH2PO4, 1.2 MgCl2, 1.2 CaCl2, 10 glucose, and 1.0 μM indomethacin, adjusted to pH 7.2 and ˜290 mOsm at room temperature.
MCCV measurement. Details are in the previous reports (16,59,60). Briefly, each whole length ferret or piglet trachea, or a CF tracheal trim, was cut open along the mid-dorsal line and mounted mucosal side up onto a Sylgard elastomer platform. […] The prepared trachea was placed into a sealed, humidified chamber bubbled continuously with gas (95%/5%-O2/CO2) with the serosal surface bathed with KRB buffer±drugs. […] Then excess apical solution was drained, and tissue was incubated for an additional 10 min before starting baseline measurements of MCCV. Drugs were added by bath replacement with pre-warmed bath+drug(s). Summary MCCV data are reported as a single number and based on the averaged MCCV during the last 20 min of the treatment period unless stated otherwise.
MCCV (all values are in mm/min) was then measured for 90-120 min and plotted as MCCV vs time and agonist(s) in FIG. 8.
It was hypothesized that the synergistic MCC induced by β-adrenergic and cholinergic agonists involved ENaC inhibition.

ex vivo WT pig tracheas = assay: ASL height by synchrotron-based phase contrast imaging; conditions: 10 μM formoterol (T30-T50); synergy agonists (T65-T85)
Experimental: ASL heights were determined in pig tracheal preparations using synchrotron-based phase contrast imaging (PCI). The synchrotron beamline produces enough parallel spatial coherence X-ray to increase the contrast between airway lumen and ASL layer by PCI. When X-rays pass through the intact tracheal preparation, the difference in refractive index between ASL and airway lumen results in a phase shift of X-rays that causes a distinctive interference pattern shown on the charge-coupled device (CCD) detector as variations in X-ray intensity.

[1] = test system: sheep with induced CF airway disease; assay: Tracheal mucus velocity (TMV) in sheep CF model (CFTRinh172 + hNE); assay type: in vivo; conditions: inhalation, 20 μg Formoterol
Experimental: Briefly, adult sheep are placed in an upright position in a specialized body harness and under local anesthesia the animals are nasally intubated with a standard endotracheal (ET) tube. Tracheal mucus velocity (TMV), the in vivo equivalent of MCCV, is measured by a fluoroscopic technique. Five to seven radiopaque Teflon/bismuth trioxide disks (1 mm in diameter, 0.8-mm in thickness, and 1.8 mg in weight) are insufflated into the mid-portion of the animal's trachea. Once the disks are delivered into the trachea, the cephalad-axial velocity of each individual disk is recorded on videotape from a portable image intensifier unit in-line with the fluoroscope. The mean value of all the disk velocities is calculated for a given time point, with new disks insufflated pat subsequent time points. After baseline values are determined, animals receive by aerosolization 10 mg of CFTRinh172 and TMV measurements are repeated hourly for the following 2 hours. Then the animals receive by aerosolization 1190 mU of human Neutrophil Elastase (hNE) and TMV measurements are repeated hourly for the following 2 hours. […] Methacholine alone was not tested as this will induce severe bronchospasm and compromise the life of the animal. After test agent administration by inhalation, the TMV was measured hourly for 12 hours and at 24 hours.

piglet tracheal rings = assay: Airway narrowing: lumen area of thin sliced tracheal rings, methacholine; parameters: species or system pig; conditions: 0.3 or 0.6 mM methacholine alone
Experimental: Airway smooth muscle contraction measurement. Two methods were used to measure tracheal smooth muscle contraction. One is designed to measure airway narrowing using thin sliced tracheal rings. Piglet or ferret tracheal ring preparations of ˜2 mm were submerged and securely pinned on a Sylgard-lined Petri dish filled with KRB solution at 37° C. and pH 7.4. Digital images of tracheal ring contractions in response to agonists for 1-10 min intervals were recorded with a Nikon digital camera and the inner lumen surface area of the tracheal ring was calculated using ImageJ (NIH, MD/USA). The other method is using a force transducer. One end of an isolated ferret trachealis muscle bundle was secured in a Sylgard-lined Petri dish filled with KRB solution and the other end was attached by 26-gauge wire to a previously calibrated strain gauge (series 400A force transducer system, Cambridge Technology, MA/USA).

Cn1c(=O)c2c(-c3ccccc3)n3c(c2n(C)c1=O)C(c1ccc(Br)o1)Oc1ccc(C(=O)O)cc1-3 (centres unmarked) [BPO-27, benzopyrimido-pyrrolo-oxazinedione]
effect on Isc, raw trace (pig tracheal mucosa): steep drops in Isc and conductance

NC(=NCc1ccccc1)NC(=O)c1nc(Cl)c(N)nc1N [benzamil]
increase of baseline MCCV by ENaC inhibition (WT piglet tracheas; 10 μM benzamil vs without benzamil, piglets): ~6 times
baseline MCCV with benzamil (WT piglet tracheas; 10 μM benzamil, no agonists, piglets): 3.0±0.7 mm/min

COc1ccc(CC(C)NCC(O)c2ccc(O)c(NC=O)c2)cc1 (centres unmarked) [formoterol]
average rate of ASL height increase (ex vivo WT pig tracheas): 1.7±0.1 μm/min
effect on TMV compared to the control [1]: barely had any effect

CC(=O)OC(C)C[N+](C)(C)C (centres unmarked) [methacholine]
sustained reduction of lumen area (piglet tracheal rings): 20-40%
effect on MCCV (WT piglet tracheas; piglet tracheas, 10 μM formoterol or 0.3 μM methacholine alone): only a small increase

O=C(O)c1cccnc1Nc1cccc(C(F)(F)F)c1 [niflumic acid]
effect on Isc, raw trace (pig tracheal mucosa): steep drops in Isc and conductance
